Source: patent US9273015B2, “s-Triazine compounds, pharmaceutical compositions and methods of using the same” (NEW YORK UNIVERSITY, priority 2010, dated 2016)
Converted amounts (≈) assume the structure as drawn. “Also recorded” adds a separate entry of the source. Read-outs that look alike come from different tables or passages of the source.

Assays:
E. coli D31 = experiment: Growth inhibition (broth microdilution), E. coli D31; type: cell-based, Escherichia coli
From the text: (§1) The antimicrobial activity of each peptide can be tested following standard broth microdilution protocols recommended by the National Committee for Clinical Laboratory Standard. Multidrug-resistant Staphylococcus aureus strain (ATCC BAA-44) and Acinetobacter baumannii (ATCC BAA-747) can be used in this study, as well as Ampicillin- and streptomycin-resistant Escherichia coli (D31), obtained from the E. coli Genetic Resource Center (Yale University, New Haven, Conn.). Bacteria can be grown overnight in Tryptic Soy broth at 37° C. Then, cultures are diluted in Mueller-Hinton broth to a final concentration range of 2×10^4 to 2×10^5 CFU/ml. Bacterial inocula are incubated at 37° C. in phosphate-buffered saline (PBS) buffer (pH7.2) with various dilutions of peptide stock. The 18-hour absorbance data are used to calculate the percentage of inhibition for each sample by comparison with the absorbance of cultures without sample. Bacterial growth is measured by turbidity as optical density at 600 nm (OD600), using a Genesys 5 Spectrophotometer (Rochester, N.Y.) or equivalent instrument. All assays can be carried out in triplicate. The concentration of peptide that results in 50% inhibition of growth is recorded as the IC50. In addition the concentration of agents needed can be monitored to reduce the bacterial population by three logs, IC99.9. This is a more rigorous indicator of the amount needed to prevent an infection.
(§2) The antimicrobial activity of each triazine compound was tested by following standard broth microdilution protocols recommended by the National Committee for Clinical Laboratory Standard. All compounds were initially tested against Bacillus subtilis (ATCC 6633; Rockville, Md.). Bacteria were grown in Mueller Hinton Broth (MHB) at 37° C. for overnight. Then, cultures were diluted in MHB to a final concentration of 2×10^4 to 2×10^5 CFU/mL. Bacterial inocula were incubated at 37° C. in PBS buffer (pH 7.2) with varying concentrations of 2-fold dilution of triazine stocks. The 18-hour absorbance data were used to calculate the percent inhibition for each sample by comparing with the absorbance of cultures without triazine compounds. Bacterial growth was measured by turbidity as optical density at 600 nm using a Genesys 5 Spectrophotometer (Rochester, N.Y.).

S. aureus = experiment: Growth inhibition (broth microdilution), S. aureus; type: cell-based, Staphylococcus aureus; settings: for IC50: Table 3
From the text: as §1, §2

B. subtilis = experiment: Growth inhibition (broth microdilution), B. subtilis; type: cell-based; settings: Bacillus subtilis; for MIC50: read-out: B. Subtilis MIC50; for MIC90: read-out: B. Subtilis MIC90; for IC50: Table 3
Protocol: as §2

fresh sheep erythrocytes = experiment: Hemolytic activity; type: cell-based
Protocol: Hemolytic activity of triazine compounds is assessed using fresh sheep erythrocytes (Fitzgerald Inc., Concord, Mass.). The red blood cell suspension is incubated in PBS buffer (pH 7.2) with varying concentrations of sample stocks at 37° C. for 30 minutes, and then spun down at 3,000 rpm for 10 mins. The resulting supernatant is diluted by a factor of 40 with distilled water. The absorbance of the supernatant at 540 nm is measured using a Genesys 5 Spectrophotometer. Zero % and 100% hemolysis controls are obtained by incubating the cells with buffer and 1% Triton-X, respectively.
Hemolytic activity of three triazine compounds Is assessed on fresh sheep erythrocytes (Fitzgerald Inc., Concord, Mass.). The red blood cell suspension Is incubated in PBS buffer (pH 7.2) with varying concentrations of sample stocks at 37° C. for 30 minutes, and then spun down at 3,000 rpm for 10 mins. The resulting supernatant is diluted by a factor of 40 in distilled water. The absorbance of the supernatant at 540 nm is measured using a Genesys 5 Spectrophotometer. Zero hemolysis and 100% hemolysis controls are obtained by incubating the cells with buffer and 1% Triton-X, respectively. Sample concentration yielding 50% hemolysis is used as hemolytic dose (HD50) determined from dose-response curves.

A. baumannii [1] = experiment: Growth inhibition (broth microdilution), A. baumannii; type: cell-based, Acinetobacter baumannii; settings: Table 1
From the text: as §1, §2

[2] = test system: E. coli RP437/pRSH103 biofilm; experiment: Biofilm formation in 96 well plate (crystal violet, OD540); type: cell-based
Protocol: This assay is based on the protocols described previously (Li, 2001 #745; Pratt, 1998 #725) with slight modifications. Briefly, E. coli RP437 or the test strain is used to form biofilms in 96 well plates in the presence of dendrimer peptides (RW)4D or other agents. An overnight culture of E. coli RP437 grown in LB medium is used to inoculate LB medium in 96 well plates to an OD600 of 0.05. The peptides can be added to a final concentration of 0, 5, 10, 20, or 40 μM, respectively. Four replicates are tested for each condition. All samples are incubated at 37° C. without shaking for 24 hours to form the film. Then planktonic cells are removed and the plates with biofilms are washed three times with DI H2O and dried by gentle patting on a piece of paper towel. To stain the biofilms, 300 μL of 0.1% crystal violet is added into each well and incubated for 20 minutes at room temperature. Then the plates are washed three times with DI H2O to remove extra staining dye. OD540 is then measured to quantify the biofilm on the bottom of each well.
(§3) The strain for this experiment used was E. coli RP437/pRSH103, a strong film forming strain. The surface studied was that of a 96 well plate. Culture conditions were 24 hours or 48 hours of incubation in Luria-Bertani Broth (LB) supplemented with 10 μg/mL tetracycline at 37° C. The following assays were performed:
(§4) 1. Measurement of total cell growth in each well using OD600. 2. Quantification of the biofilm at the bottom of each well by staining with 0.1% crystal violet and reading OD540.
2. Quantification of total biofilm by dissolving the crystal violet with ethanol and reading at OD540 Absorbance at 540 nm and 600 nm with the medium and triazine only (no cells) was also measured to control the results by subtracting the background reading.

[3] = test system: E. coli RP437/pRSH103 planktonic cells; experiment: Total planktonic cell growth (OD600); type: cell-based; settings: concentration range 0-5 μg/mL
Protocol: as §3, §4

A. baumannii [4] = experiment: Evolution of resistance on exposure to sublethal concentrations; type: cell-based; settings: 400 generations of exposure to sublethal concentrations
From the text: FIG. 1 graphically depicts the experimental evaluation of the ability of A. baumannii to evolve resistance to sublethal TN5 and the AMP indolicidin relative to two antibiotics in current use. Changes in the IC50 of cultures exposed to sublethal doses of TN5 are expressed as ratios of the new to original values. For reference, the response of these cells to two current antibiotics is shown.
In particular, FIG. 1 depicts the results of the experimental evaluation of the ability of A. baumannii to evolve resistance to sublethal TN5 and the AMP indolicidin relative to two antibiotics in current use. Changes in the IC50 of cultures exposed to sublethal doses of TN5 are expressed as ratios of the new to original values. For reference, the response of these cells to ciprofloxacin and gentamycin, two current antibiotics is shown.

[5] = Escherichia coli, D31, Table 2, read-out: E. Coli MIC50
[6] = Escherichia coli, D31, Table 2, read-out: E. Coli MIC90
[7] = Staphylococcus aureus, Table 2, read-out: S. Aureus MIC50
[8] = Staphylococcus aureus, Table 2, read-out: S. Aureus MIC90
[9] = Escherichia coli, D31, Table 3, read-out: E. coli IC50

## NCCCNc1nc(NCCc2c[nH]c3ccccc23)nc(NCCc2c[nH]c3ccccc23)n1 [TZ-WKW]
E. coli D31; Escherichia coli, D31, read-out: E. coli IC50
  IC50: 4.5 µg/mL (≈ 9.58 µM)
E. coli D31; [5]
  MIC50: 4.5 µg/mL (≈ 9.58 µM)
E. coli D31; [6]
  MIC90: 6 µg/mL (≈ 12.8 µM)
S. aureus; [7]
  MIC50: 3.4 µg/mL (≈ 7.24 µM)
S. aureus; [8]
  MIC90: 4.4 µg/mL (≈ 9.37 µM)
S. aureus; Staphylococcus aureus
  IC50: 3.4 µg/mL (≈ 7.24 µM)
B. subtilis; Table 2
  MIC50: 1.5 µg/mL (≈ 3.19 µM)
  MIC90: 2.3 µg/mL (≈ 4.9 µM)
B. subtilis
  IC50: 1.5 µg/mL (≈ 3.19 µM)
Fresh sheep erythrocytes; Table 3
  HD50: 65 µg/mL

## CCCCN(CCCC)CCCNc1nc(NCCc2c[nH]c3ccccc23)nc(NCCc2c[nH]c3ccccc23)n1 [TZ-WK(Bu)2W]
E. coli D31; [5]
  MIC50: 21.3 µg/mL (≈ 36.6 µM)
E. coli D31; [6]
  MIC90: 55.2 µg/mL (≈ 94.9 µM)
E. coli D31; [9]
  IC50: 21.3 µg/mL (≈ 36.6 µM)
S. aureus; [7]
  MIC50: 1.8 µg/mL (≈ 3.09 µM)
S. aureus; [8]
  MIC90: 2.4 µg/mL (≈ 4.13 µM)
S. aureus; Staphylococcus aureus
  IC50: 1.8 µg/mL (≈ 3.09 µM)
B. subtilis; Table 2
  MIC50: 1 µg/mL (≈ 1.72 µM)
  MIC90: 3.1 µg/mL (≈ 5.33 µM)
B. subtilis
  IC50: 1 µg/mL (≈ 1.72 µM)
Fresh sheep erythrocytes; Table 3
  HD50: 91.5 µg/mL

## CCCCN(CCCC)CCCNc1nc(NCc2ccccc2)nc(Nc2cccc3ccccc23)n1 [TN2]
A. baumannii [1]
  MIC50: 12.8 µg/mL (≈ 25 µM)
  MIC90: 15.8 µg/mL (≈ 30.9 µM)
E. coli D31; E. coli D31, Table 1
  MIC50: 26.9 µg/mL (≈ 52.6 µM)
  MIC90: 55.6 µg/mL (≈ 109 µM)
S. aureus; S. aureus, Table 1
  MIC50: 12.1 µg/mL (≈ 23.6 µM)
  MIC90: 14.55 µg/mL (≈ 28.4 µM)
Fresh sheep erythrocytes; 50% hemolysis, Table 1
  HD50: 840.8 µg/mL

## NCCCCNc1nc(NCc2ccccc2)nc(NCc2cccc3ccccc23)n1 [TN5]
A. baumannii [1]
  MIC50: 3 µg/mL (≈ 7.02 µM)
  MIC90: 5.1 µg/mL (≈ 11.9 µM)
E. coli D31; E. coli D31, Table 1
  MIC50: 4.75 µg/mL (≈ 11.1 µM)
  MIC90: 8.9 µg/mL (≈ 20.8 µM)
S. aureus; S. aureus, Table 1
  MIC50: 5.9 µg/mL (≈ 13.8 µM)
  MIC90: 9.8 µg/mL (≈ 22.9 µM)
Fresh sheep erythrocytes; 50% hemolysis, Table 1
  HD50: 167.5 µg/mL
[2]; E. coli
  Biofilm formation: prevents film formation
[2]; E. coli, listed as TN-5
  Biofilm formation: prevents formation of biofilms
[2]; at 1, 5, 10 μg/mL, 24 or 48 hours in LB
  Biofilm formation: inhibited biofilm formation
[3]
  Growth of planktonic cells: does not inhibit growth of planktonic cells
A. baumannii [4]
  Acquired resistance (change in IC50, ratio of new to original): does not acquire resistance

## CCCCN(CCCC)CCCNc1nc(NCc2ccccc2)nc(NCc2cccc3ccccc23)n1 [TN4]
A. baumannii [1]
  MIC50: 302.5 µg/mL (≈ 575 µM)
  MIC90: 462.5 µg/mL (≈ 880 µM)
E. coli D31; E. coli D31, Table 1
  MIC50: 18.8 µg/mL (≈ 35.8 µM)
  MIC90: 62.5 µg/mL (≈ 119 µM)
S. aureus; S. aureus, Table 1
  MIC50: 68 µg/mL (≈ 129 µM)
  MIC90: 117.5 µg/mL (≈ 223 µM)
Fresh sheep erythrocytes; 50% hemolysis, Table 1
  HD50: 221.3 µg/mL

## N=C(N)NCCNc1nc(NCCc2c[nH]c3ccccc23)nc(NCCc2c[nH]c3ccccc23)n1 [TZ-WRW]
E. coli D31; [5]
  MIC50: 4.1 µg/mL (≈ 8.24 µM)
E. coli D31; [6]
  MIC90: 9.1 µg/mL (≈ 18.3 µM)
E. coli D31; [9]
  IC50: 4.1 µg/mL (≈ 8.24 µM)
S. aureus; [7]
  MIC50: 3.3 µg/mL (≈ 6.63 µM)
S. aureus; [8]
  MIC90: 3.5 µg/mL (≈ 7.03 µM)
S. aureus; Staphylococcus aureus
  IC50: 3.3 µg/mL (≈ 6.63 µM)
B. subtilis; Table 2
  MIC50: 2.9 µg/mL (≈ 5.83 µM)
  MIC90: 5.1 µg/mL (≈ 10.2 µM)
B. subtilis
  IC50: 2.9 µg/mL (≈ 5.83 µM)
Fresh sheep erythrocytes; Table 3
  HD50: 43.6 µg/mL

## CN[C@H](CC(C)C)C(=O)N[C@H]1C(=O)N[C@@H](CC(N)=O)C(=O)N[C@H]2C(=O)N[C@H]3C(=O)N[C@H](C(=O)N[C@H](C(=O)O)c4cc(O)cc(O)c4-c4cc3ccc4O)[C@H](O)c3ccc(c(Cl)c3)Oc3cc2cc(c3O[C@@H]2O[C@H](CO)[C@@H](O)[C@H](O)[C@H]2O[C@H]2C[C@](C)(N)[C@H](O)[C@H](C)O2)Oc2ccc(cc2Cl)[C@H]1O [Vancomycin, reference compound]
E. coli D31; Escherichia coli, D31, read-out: E. Coli MIC50
  MIC50: 192 µg/mL (≈ 132 µM)
E. coli D31; Escherichia coli, D31, read-out: E. Coli MIC90
  MIC90: > 200 µg/mL
S. aureus; Staphylococcus aureus, read-out: S. Aureus MIC50
  MIC50: 0.8 µg/mL (≈ 0.552 µM)
S. aureus; Staphylococcus aureus, read-out: S. Aureus MIC90
  MIC90: 1.2 µg/mL (≈ 0.828 µM)
B. subtilis
  MIC50: < 0.8 µg/mL
  MIC90: < 0.8 µg/mL
A. baumannii [4]
  Acquired resistance (change in IC50, ratio of new to original): marked contrast

## O=C(O)c1cn(C2CC2)c2cc(N3CCNCC3)c(F)cc2c1=O [ciprofloxacin]
A. baumannii [4]
  Acquired resistance (change in IC50, ratio of new to original): significant increase in the IC50

## gentamycin
A. baumannii [4]
  Acquired resistance (change in IC50, ratio of new to original): marked contrast; also recorded: significant increase in the IC50

## NCCCCNc1nc(NCc2ccccc2)nc(Nc2cccc3ccccc23)n1 [TN3]
A. baumannii [1]
  MIC50: 50.8 µg/mL (≈ 123 µM)
  MIC90: 77.4 µg/mL (≈ 187 µM)
E. coli D31; E. coli D31, Table 1
  MIC50: 40 µg/mL (≈ 96.7 µM)
  MIC90: 84.8 µg/mL (≈ 205 µM)
S. aureus; S. aureus, Table 1
  MIC50: 50.1 µg/mL (≈ 121 µM)
  MIC90: 71.3 µg/mL (≈ 172 µM)
Fresh sheep erythrocytes; 50% hemolysis, Table 1
  HD50: 901.9 µg/mL
